One data set concerns Aphidius rhopalosiphi. The data set is described as follows: LR50; higher = less toxic. The following applies: not reported; mortality.
The next data set deals with Daphnia magna. The following applies: chronic/long-term; duration: 21 days; reproduction.
The next data set deals with Oryctolagus sp. The following applies: reproduction developmental; body weight.
For a further data set, the system named is Oncorhynchus mykiss. The following applies: acute; duration: 96 hours; mortality.
The subject of the next data set is Apis mellifera. The following applies: acute; duration: 48 hours; oral; unspecified; mortality.
In the next data set the test system is Mus musculus. The following applies: chronic; duration: 2 years; body weight.
The subject of a further data set is Anatidae. The following applies: oral, mortality.
Another data set relates to Coturnix japonica. The following applies: acute, oral, mortality.
Another data set relates to Canidae. The following applies: chronic; duration: 1 years; oral; Dog Other; body weight.
In a further data set the test system is Bibionidae. The following applies: chronic/long-term; duration: 26 days.
The subject of a further data set is Pimephales promelas. The following applies: chronic/long-term; duration: 32 days.
Another data set deals with Folsomia candida. The following applies: chronic/long-term.

The term NOAEL denotes the highest tested level that showed no adverse finding. In the data set on Aphidius rhopalosiphi, `Nc1nc(N)nc(NC2CC2)n1` [Cyromazine] came in with an LR50 not below 891 g/ha. Besides, the LD50 is more than 2510 mg/kg in the data set on Anas platyrhynchos (acute, oral, unspecified, mortality); 1780 mg/kg in the data set on Colinus virginianus (acute, oral, mortality); 3390 mg/kg with Rattus norvegicus (acute, mortality); 186 µg/piece in the data set on Apis mellifera; more than 1000 mg/kg with Anatidae (acute, unspecified); 2340 mg/kg with Coturnix japonica. For the same molecule, the results for the NOEL in the data set with Anas platyrhynchos (reproductive) and with Colinus virginianus (reproduction developmental) were 38.3 mg/kg-day and 110 mg/kg-day, respectively. Besides, the LC50 in the data set with Anas platyrhynchos (short-term, oral, feed, mortality) was more than 526 mg/kg-day; with Tagia sp. (acute, duration: 14 days, mortality) it was more than 1000 mg/kg; in the data set with Colinus virginianus (acute, oral, diet, mortality), more than 1370 mg/kg-day; in the data set on Oncorhynchus mykiss it was more than 100 µg/mL; in the data set with Anatidae (short-term, feed) it was more than 1120 mg/kg-day; with Coturnix japonica (diet), more than 683 mg/kg-day. For the same molecule, the NOEC in the data set on Daphnia magna turned out to be 0.31 mg/L; in the data set on Tagia sp. (chronic/long-term, duration: 56 days, reproduction), 333 mg/kg; in the data set on Bibionidae, 0.025 mg/L; in the data set with Pimephales promelas it was 14 mg/L; with Folsomia candida, 9.6 mg/kg. In addition, the NOAEL with Oryctolagus sp. came out at 10 mg/kg-day; with Rattus norvegicus (reproduction developmental, reproduction), 30 mg/kg-day; in the data set on Mus musculus it was 6.5 mg/kg-day; in the data set with Canidae, 5.74 mg/kg-day.

These data come from EPA's ToxValDB 9.5 (doi:10.2903/j.efsa.2008.168r).
